Patent publication US10080751B2, “Systems and methods for treating bacterial infection” (priority 2016, dated 2018)
In brackets after ≈: the same amount, converted by molar mass. Read-outs that look alike come from different tables or passages of the source.

How the values were obtained:
E. coli = experiment: MIC with/without bovine pulmonary surfactant, E. coli; assay type: cell-based, Escherichia coli; conditions: E. coli ATCC 25922
Procedure: (§1) Clinical isolates were identified by the submitting laboratories and confirmed by JMI Laboratories using standard bacteriologic algorithms and methodologies, including Matrix-Assisted Laser Desorption Ionization-Time Of Flight Mass Spectrometry (MALDI-TOF MS). When necessary, MALDI-TOF MS was performed using the Bruker Daltonics MALDI Biotyper (Billerica, Mass., USA), following manufacturer's instructions. Isolates selected were bacterial species commonly associated with pneumonia. […] 2.2 Susceptibility testing
(§2) Antibacterial susceptibility testing was measured by JMI Labs (North Liberty, Iowa, USA). […] These clinical isolates were collected from US (n=4), Mexico (n=2), and Italy (n=1). Susceptibility testing was performed by broth microdilution in accordance with the Clinical and Laboratory and Standards Institute (CLSI) guidelines M07-A10 (2015) and the standard operating procedures at JMI laboratories. Minimum inhibitory concentrations (MICs) were based on CLSI criteria (2015). There are no published breakpoints for iclaprim. E. coli, K. pneumoniae, M. catarrhalis, E. faecalis, and S. aureus were tested in cation-adjusted Mueller-Hinton broth (CA-MHB). S. pneumoniae were tested in CA-MHB supplemented with 2.5-5% lysed horse blood, and H. influenza were tested in Haemophilus test medium. Quality control and interpretation of results were performed in accordance with CLSI M100-S26 (2016) methods. QC ranges for iclaprim were those approved by CLSI and published in M100-S26 (2016). Iclaprim and comparator antibiotic MIC results were within the CLSI published ranges against E. coli ATCC 25922, E. faecalis ATCC 29212, E. faecalis ATCC 33186, H. influenzae ATCC 49247, K. pneumoniae ATCC 700603 (ESBL phenotype), S. aureus ATCC 29213, and S. pneumoniae ATCC 49619. Isolates were tested with MIC panels (ThermoFisher Scientific, Cleveland, Ohio, USA) of comparator antibiotics (daptomycin and levofloxacin).
(§3) Because bovine pulmonary surfactant can introduce cloudiness to the MIC testing media, antimicrobial growth inhibition was also evaluated using the colorimetric metabolic indicator resazurin (Camlab Ltd., Cambridge, UK). […] S. pneumoniae panels were omitted from resazurin analysis because the color change was obscured by the lysed horse blood present in the test medium. Growth inhibition was then evaluated as a visible color change from blue (no growth) to pink (robust growth) and recorded as a MICRZ value.
(§4) The MICs of iclaprim, levofloxacin, and daptomycin were determined against Gram-positive and Gram-negative isolates.
A new vial of bovine pulmonary surfactant (BPS; Survanta®; Abbott Laboratories, Columbus, Ohio) was utilized for each independent experiment. […] MICs of daptomycin were determined in CAMHB with the Ca^2+ content adjusted to 50 mg/L.

S. pneumoniae = experiment: MIC with/without bovine pulmonary surfactant, S. pneumoniae; assay type: cell-based; conditions: Streptococcus pneumoniae
Procedure: as §1, §2, §3, §4
(§5) A new vial of bovine pulmonary surfactant (BPS; Survanta®; Abbott Laboratories, Columbus, Ohio) was utilized for each independent experiment. Each vial was mixed thoroughly and a 100 μL aliquot was spread on an agar plate, which was incubated overnight to confirm sterility. […] The concentration of surfactant was expressed in terms of percent volume of Survanta® suspension, which consisted of phospholipid (25 mg/mL) and surfactant proteins (<1 mg/mL) in 0.9% sodium chloride solution (Goerke, 1998). MICs of daptomycin were determined in CAMHB with the Ca^2+ content adjusted to 50 mg/L.

S. aureus = experiment: MIC with/without bovine pulmonary surfactant, S. aureus; assay type: cell-based, Staphylococcus aureus; conditions: for MICRZ, Resazurin: +BPS: 2.5% v/v BPS; for MICRZ, Resazurin: no BPS
Procedure: as §1, §2, §3, §4, §5

K. pneumoniae = experiment: MIC with/without bovine pulmonary surfactant, K. pneumoniae; assay type: cell-based, Klebsiella pneumoniae; conditions: for MIC: Klebsiella pneumoniae
Procedure: as §1, §2, §3, §4, §5

H. influenzae = experiment: MIC with/without bovine pulmonary surfactant, H. influenzae; assay type: cell-based, Haemophilus influenzae; conditions: for MIC: Haemophilus influenzae
Procedure: as §1, §2, §3, §4, §5

E. faecalis = experiment: MIC with/without bovine pulmonary surfactant, E. faecalis; assay type: cell-based, Enterococcus faecalis; conditions: for MIC: Enterococcus faecalis
Procedure: as §1, §2, §3, §4, §5

M. catarrhalis = experiment: MIC with/without bovine pulmonary surfactant, M. catarrhalis; assay type: cell-based, Moraxella catarrhalis; conditions: for MICRZ, Resazurin: +BPS: 2.5% v/v BPS
Procedure: as §1, §2, §3, §4, §5

S. aureus strain AH1252 = experiment: Neutropenic rat lung infection model; assay type: in vivo; conditions: iclaprim 80 mg/kg
Procedure: S. aureus strain AH1252, a thymidine knockout of the MRSA wild type AW6 strain, was utilized for this study. The bacterial strain was diluted in a 2% alginate buffer, which was added dropwise in a ratio of 1:5 into […] to form alginate beads. The alginate beads reduce the efficacy of bacterial clearance similar to that seen in the cystic fibrosis population. A 5.25×10^4 bacterial inoculum was administered to groups of 9 rats, intratracheally, with prepared alginate bacteria suspensions, under isoflurane anesthesia. […] Twelve hours after the last treatment, rats were euthanized and lungs collected for CFU determination.

[1] = system: nosocomial pneumonia suspected or confirmed to be caused by Gram-positive pathogens; conditions: intent-to-treat, test of cure visit; vancomycin 1 g IV q12h; cited from earlier work
[2] = S. aureus Clinical Isolate 825189
[3] = SC/BID 3 days, vancomycin 50 mg/kg

C[C@H]1COc2c(N3CCN(C)CC3)c(F)cc3c(=O)c(C(=O)O)cn1c23 [Levofloxacin]
MICRZ, Resazurin: +BPS (E. coli; 2.5% v/v BPS): 0.03 µg/mL
MICRZ, Resazurin (E. coli; no BPS): 0.015 µg/mL
MIC (S. pneumoniae; ATCC49619, S. pneumoniae ATCC 49619, 2.5% v/v BPS, read-out: MIC, CLSI: +BPS): 1 µg/mL (≈ 2.77 µM)
MIC (S. pneumoniae; ATCC49619, S. pneumoniae ATCC 49619, no BPS, read-out: MIC, CLSI): 1 µg/mL (≈ 2.77 µM)
MIC (S. pneumoniae; S. pneumoniae Clinical Isolate 818757, 2.5% v/v BPS, read-out: MIC, CLSI: +BPS): 1 µg/mL (≈ 2.77 µM)
MIC (S. pneumoniae; S. pneumoniae Clinical Isolate 818757, no BPS, read-out: MIC, CLSI): 1 µg/mL (≈ 2.77 µM)
MIC (S. pneumoniae; S. pneumoniae Clinical Isolate 825175, 2.5% v/v BPS, read-out: MIC, CLSI: +BPS): 1 µg/mL (≈ 2.77 µM)
MIC (S. pneumoniae; S. pneumoniae Clinical Isolate 825175, no BPS, read-out: MIC, CLSI): 1 µg/mL (≈ 2.77 µM)
MICRZ, Resazurin: +BPS (S. aureus; S. aureus ATCC 29213): 0.12 µg/mL
MICRZ, Resazurin (S. aureus; S. aureus ATCC 29213): 0.25 µg/mL
MICRZ, Resazurin: +BPS (S. aureus; [2]): 0.25 µg/mL
MICRZ, Resazurin (S. aureus; [2]): 0.25 µg/mL
MICRZ, Resazurin: +BPS (K. pneumoniae; K. pneumoniae ATCC 700603, 2.5% v/v BPS): 1 µg/mL
MICRZ, Resazurin (K. pneumoniae; K. pneumoniae ATCC 700603, no BPS): 1 µg/mL
MICRZ, Resazurin: +BPS (K. pneumoniae; K. pneumoniae Clinical Isolate 858055, 2.5% v/v BPS): 0.06 µg/mL
MICRZ, Resazurin (K. pneumoniae; K. pneumoniae Clinical Isolate 858055, no BPS): 0.06 µg/mL
MIC (K. pneumoniae; ATCC700603, K. pneumoniae ATCC 700603, 2.5% v/v BPS, read-out: MIC, CLSI: +BPS): 1 µg/mL (≈ 2.77 µM)
MIC (K. pneumoniae; ATCC700603, K. pneumoniae ATCC 700603, no BPS, read-out: MIC, CLSI): 1 µg/mL (≈ 2.77 µM)
MIC (K. pneumoniae; K. pneumoniae Clinical Isolate 858055, 2.5% v/v BPS, read-out: MIC, CLSI: +BPS): 0.12 µg/mL (≈ 0.332 µM)
MIC (K. pneumoniae; K. pneumoniae Clinical Isolate 858055, no BPS, read-out: MIC, CLSI): 0.06 µg/mL (≈ 0.166 µM)
MICRZ, Resazurin: +BPS (H. influenzae; H. influenzae ATCC 49247, 2.5% v/v BPS): 0.03 µg/mL
MICRZ, Resazurin (H. influenzae; H. influenzae ATCC 49247, no BPS): 0.03 µg/mL
MICRZ, Resazurin: +BPS (H. influenzae; H. influenzae Clinical Isolate 824704, 2.5% v/v BPS): 0.015 µg/mL
MICRZ, Resazurin (H. influenzae; H. influenzae Clinical Isolate 824704, no BPS): 0.015 µg/mL
MIC (H. influenzae; ATCC49247, H. influenzae ATCC 49247, 2.5% v/v BPS, read-out: MIC, CLSI: +BPS): 0.03 µg/mL (≈ 0.083 µM)
MIC (H. influenzae; ATCC49247, H. influenzae ATCC 49247, no BPS, read-out: MIC, CLSI): 0.03 µg/mL (≈ 0.083 µM)
MIC (H. influenzae; H. influenzae Clinical Isolate 824704, 2.5% v/v BPS, read-out: MIC, CLSI: +BPS): 0.015 µg/mL (≈ 0.0415 µM)
MIC (H. influenzae; H. influenzae Clinical Isolate 824704, no BPS, read-out: MIC, CLSI): 0.015 µg/mL (≈ 0.0415 µM)
MICRZ, Resazurin: +BPS (E. faecalis; E. faecalis ATCC 29212, 2.5% v/v BPS): 1 µg/mL
MICRZ, Resazurin (E. faecalis; E. faecalis ATCC 29212, no BPS): 1 µg/mL
MICRZ, Resazurin: +BPS (E. faecalis; E. faecalis ATCC 33186, 2.5% v/v BPS): 2 µg/mL
MICRZ, Resazurin (E. faecalis; E. faecalis ATCC 33186, no BPS): 4 µg/mL
MIC (E. faecalis; ATCC29212, E. faecalis ATCC 29212, 2.5% v/v BPS, read-out: MIC, CLSI: +BPS): 1 µg/mL (≈ 2.77 µM)
MIC (E. faecalis; ATCC29212, E. faecalis ATCC 29212, no BPS, read-out: MIC, CLSI): 1 µg/mL (≈ 2.77 µM)
MIC (E. faecalis; ATCC33186, E. faecalis ATCC 33186, 2.5% v/v BPS, read-out: MIC, CLSI: +BPS): 1 µg/mL (≈ 2.77 µM)
MIC (E. faecalis; ATCC33186, E. faecalis ATCC 33186, no BPS, read-out: MIC, CLSI): 4 µg/mL (≈ 11.1 µM)
MICRZ, Resazurin: +BPS (M. catarrhalis; M. catarrhalis Clinical Isolate 893806): 0.06 µg/mL
MICRZ, Resazurin (M. catarrhalis; M. catarrhalis Clinical Isolate 893806, no BPS): 0.06 µg/mL
MICRZ, Resazurin: +BPS (M. catarrhalis; M. catarrhalis Clinical Isolate 893807): 0.06 µg/mL
MICRZ, Resazurin (M. catarrhalis; M. catarrhalis Clinical Isolate 893807, no BPS): 0.06 µg/mL
MIC (M. catarrhalis; Moraxella catarrhalis, M. catarrhalis Clinical Isolate 893806, no BPS): 0.06 µg/mL (≈ 0.166 µM)

CN[C@H](CC(C)C)C(=O)N[C@H]1C(=O)N[C@@H](CC(N)=O)C(=O)N[C@H]2C(=O)N[C@H]3C(=O)N[C@H](C(=O)N[C@H](C(=O)O)c4cc(O)cc(O)c4-c4cc3ccc4O)[C@H](O)c3ccc(c(Cl)c3)Oc3cc2cc(c3O[C@@H]2O[C@H](CO)[C@@H](O)[C@H](O)[C@H]2O[C@H]2C[C@](C)(N)[C@H](O)[C@H](C)O2)Oc2ccc(cc2Cl)[C@H]1O [Vancomycin]
72 hour lungs (CFU/gram of lung) log10CFU/Lung (S. aureus strain AH1252; [3]): 5.30 log10CFU/Lung
Change in CFUs from 2 hr. (S. aureus strain AH1252; [3]): 2.18 log 10 CFU
Survival >60 hrs (S. aureus strain AH1252; SC/BID 3 days, vancomycin 50 mg/kg, 9 rats): 8/9
survival compared to the infection controls (S. aureus strain AH1252; vancomycin 50 mg/kg SC/BID): increased survival
Change in CFUs from 72 hr. (S. aureus strain AH1252; vs 72 hr infection controls, vancomycin 50 mg/kg SC/BID): −3.38 log 10 CFU
cure rate [1]: 52.2%
